Experimental data reported in patent US20180042983A1, “THERAPEUTIC COMPOSITIONS INCLUDING MITOCHONDRIAL FISSION INHIBITOR PEPTIDES, VARIANTS THEREOF, AND METHODS OF USING THE SAME” (STEALTH PEPTIDES INTERNATIONAL, INC., priority 2015, published 2018).

Key:
[1] = system: several mammalian cell types; conditions: cited from earlier work
neonatal cardiomyocytes = assay: Ang II-induced mitochondrial ROS in neonatal cardiomyocytes (Mitosox flow cytometry); assay type: cell-based, mouse; conditions: after Ang II (1 μM, 3 hours)
Protocol: Ventricles from mouse neonates younger than 72 hours will be dissected, minced, and enzymatically digested with Blendzyme 4 (45 mg/mL, Roche). After enzymatic digestion, cardiomyocytes will be enriched using differential pre-plating for 2 hours, and seeded on fibronectin-coated culture dishes for 24 hours in DMEM (Gibco) with 20% Fetal Bovine Serum (Sigma) and 25 μM Arabinosylcytosine (Sigma). Cardiomyocytes will be stimulated with Angiotensin II (1 μM) for 3 hours in serum-free DMEM containing 0.5% insulin transferrin-selenium (Sigma), 2 mM glutamine, and 1 mg/mL BSA. […] To measure mitochondrial superoxide concentration, Mitosox ([…]) will be incubated for 30 minutes at 37° C. to load cardiomyocytes, followed by 2 washes with Hanks Balanced Salt Solution. Samples will be analyzed using excitation/emission of 488/625 nm by flow cytometry. Flow data will be analyzed using FCS Express (De Novo Software, Los Angeles, Calif., U.S.A.), and presented as histogram distributions of Mitosox fluorescence intensity.

Molecule	penetration of the plasma membrane [1]	mitochondrial ROS (Mitosox fluorescence) (neonatal cardiomyocytes)
2′,6′-Dmt-D-Arg-Phe-Lys-NH2	readily penetrates the plasma membrane of several mammalian cell types in an energy-independent manner	
CC(=O)N[C@@H](CS)C(=O)O [N-acetyl cysteine]		not show any effect
